Measured values from patent US8372808B2, “Suppression of glial fibrillary acidic protein” (Wisconsin Alumni Research Foundation, priority 2008, dated 2013).

Legend:
mGFAP protein = test: cell-based GFAP protein level assay (cell-based ELISA) in 172.9 cells; parameters: species or system mouse; settings: tertiary screen; 48 hr exposure; at the MTDcc
[1] = test system: 2.2 kb human GFAP promoter; test: hGFAP promoter luciferase activity assay in 172.9 cells (primary astrocytes from dual luciferase transgenic mice); format: cell-based
Experimental: Cell-based assays were performed as four different screens using enriched cortical primary astrocyte cultures developed from transgenic mice expressing both firefly and Renilla luciferase reporter genes were generated. Briefly, the'firefly luciferase was placed under the control of a 2.2 kb human GFAP promoter to monitor GFAP transcription, and the Renilla luciferase was placed under the control of a 0.5 kb human GAPDH (glyceraldehyde 3-phosphate dehydrogenase) promoter to monitor transcription of a housekeeping gene for signal normalization. See section B, below for more detail regarding the development of transgenic mouse strains. Cells used in the following examples (e.g., the cortical primary astrocyte cells termed “172.9 cells,” described below) were developed from the transgenic mice described in section B.
Briefly, the cortices from individual pups were freed of meninges and placed into DMEM (Gibco) without serum, mechanically disassociated into single cells, suspended in medium containing DMEM supplemented with 10% fetal bovine serum (FBS; Hyclone), 100 U/ml penicillin, 100 μg/ml streptomycin (Gibco), seeded into T25 flasks (one brain per flask), and maintained in a humidified 5% CO2 atmosphere at 37° C. […] Medium was changed every 3 days. At 14-16 days in vitro (DIV), the flasks were shaken overnight at 200 rpm to remove oligodendrocytes and microglia. […] The cells were then suspended in DMEM with 10% FBS and plated (“passage 2”) on either 35 mm dishes, […], or 96-well plates (Corning) as needed. Cells were grown for varying days in vitro (DIV) at passage 2 and then used for various experiments. Tissue culture dishes and plates were pre-coated with 100 μg/ml poly-L-lysine for 1 h in a humidified 5% CO2 atmosphere at 37° C., and then allowed to air dry. […] Cell density was measured with the Vi-CELL cell counter (Beckman Coulter) or hemocytometer by the trypan-blue exclusion method. For simplicity, cells are referred to as “172.9 cells.”
Briefly, 172.9 cells were plated on poly-L coated white 96-well plates at a density of 5000 cells per well, in 100 μl DMEM with 10% FBS. At twenty-four hours, cells were exposed to the different compounds at a final concentration of 10 μM (diluted from a 50 mM stock) prepared in new medium (DMEM with 10% FBS). […] After exposure to compounds, luciferase activity in the primary and secondary screenings was determined by adding 30 μl of Bright-Glo™ reagent (Promega) to the 100 μl of media and cells of each well in the white 96-well plates with the Biomek® FX liquid handler (Beckman Coulter). After incubation for 1 minute at room temperature, signals were measured with the Safire 2 plate reader using Magellan™ software (Tecan). Other specific methods and equipment are known in the art and can be used to measure luciferase expression levels. This assay method is termed the “hGFAP promoter luciferase activity assay.” A reduction in luciferase expression as determined by this assay is termed “hGFAP promoter luciferase reduction.” For some assays that were aimed at confirming results of the initial screens, the same amount of Bright-Glo™ reagent was applied to each well in 96-well plates and signals were detected with the GloRunner™ Microplate Luminometer (Turner Biosystems) using the Dual-Glo® luciferase assay according to the manufacturer's recommendations (E1910, Promega).
In the secondary screen, cells were plated in a 96-well plate as described above for the primary screen.
Some compounds were unavailable outside of the library collections, and could not be further tested.
Each compound and concentration was analyzed in quadruplicate wells.
Compounds were tested at eight different concentrations ranging from 0-20 μM. In addition, GFAP protein levels were measured using a sandwich ELISA, which has greater sensitivity and is more accurate than the cell-based ELISA used in the primary screens.

GAPDH promoter = test: housekeeping GAPDH promoter activity in brain of Tg172.9 mice; format: in vivo, mouse; settings: 40 mg/kg IP every other day for 3 weeks
Experimental: The dual transgenic reporter mice (FVB-Tg(GFAP-luc,GAPDH-luc)172.9Mes/J mice (JR#9638)) were developed as follows. The two transgenes were co-injected at equimolar ratios into the pronuclei of fertilized eggs on either FVB/N or FB6F1 hybrid backgrounds, using a combined concentration of 3 ng/μL. Genotyping was performed by PCR on genomic DNA isolated from tail biopsies at weaning, using the following conditions: one cycle at 95° C. 3 min, 32 cycles of 95° C. 40 s, 58° C. 30 s, 72° C. 1 min and a final extension step at 72° C. for 5 min. The primers used for detection of the GFAP-fLuc transgene were 5′-[…]-3′ (forward) and 5′-[…]-3′ (reverse), and for detection of the GAPDH-RLuc transgene were 5″-[…]-3′ (forward) and 5′-[…]-3′ (reverse). The predicted sizes for the PCR fragments are 403 bp for the GFAP-fLuc transgene, and 551 by for the GAPDH-RLuc transgene. Nine founder mice were identified that contained both transgenes, and were mated to FVB/N mice to establish lines. (The Tg172-9 line of mice has been donated to the Jackson Laboratory ([…]) for unrestricted distribution (stock #JR9638). The GAPDH (glyceraldehyde 3-phosphate dehydrogenase) promoter was used to monitor transcription of a housekeeping gene for signal normalization.

GFAP promoter = GFAP promoter activity in brain of Tg172.9 mice (Dual-Glo luciferase assay); format: in vivo, mouse
Experimental: Controls were injected with vehicle only. Brains were collected at various times post-injection, and analyzed for GFAP promoter activity using the Dual-Glo assay. Graphs present the mean±SEM (n=4 at each data point). Statistical significance was evaluated by unpaired t-test (* p<0.05). […] Brains were collected at 6 hours post-injection and analyzed for GFAP promoter activity using the Dual-Glo assay. Graphs present the mean±SD (n=4 at each data point). Statistical significance was evaluated by unpaired t-test (* p<0.05).
Another group of mice were injected with the same volume of vehicle alone (n=15). Brains were bisected sagittally with one half analyzed for GFAP promoter activity using the Dual-Glo assay, and the other half analyzed for GFAP protein using the sandwich ELISA. FIG. 7A is a bar graph showing hGFAP promoter activity of clomipramine-treated mice. The mice show a 26% reduction in hGFAP promoter activity compared to vehicle-treated controls. FIG. 7B is a bar graph showing the GFAP protein levels of clomipramine-treated mice. The mice show a 57% reduction in total GFAP content compared to vehicle-treated controls. Graphs present the mean±SD (* p<0.05, ***p<0.001, unpaired t-test).
At various times after injection, from 0-48 hours, brains were harvested for measurement of GFAP promoter activity using the Dual-Glo luciferase assay, and GFAP protein using a sandwich ELISA.
Injections were given in the afternoon, between 3-5 PM. Controls were transgenic littermates injected with vehicle alone. At the end of the three week course of injections (and one day after the last injection), brains were harvested for analysis of GFAP promoter activity and protein levels as described above.
To achieve significant reductions of GFAP protein in vivo may require chronic treatments, given the slow turnover of this protein. […] Controls were injected with vehicle alone. One day after the last injection, brains were harvested and assayed for both GFAP promoter activity and GFAP protein.

## CN(C)CCCN1c2ccccc2CCc2ccc(Cl)cc21 [clomipramine]
mGFAP protein
  % GFAP reductions, mGFAP protein via ELISA: 20.6%
[1]; cultured astrocytes
  concentrations found effective in cultured astrocytes: 5 to 10 µM
[1]; quaternary screen, 10 days of exposure, 0-20 μM
  reductions in luciferase activity: consistent reductions
[1]; tertiary screen, 48 hr exposure, at the MTDcc
  % GFAP reductions, luciferace expression from hGFAP promoter: 66%
GAPDH promoter
  change in activity from the housekeeping GAPDH promoter: no significant change
GFAP promoter; 40 mg/kg IP every other day for 3 weeks
  reduction in GFAP promoter activity compared to vehicle-treated controls: 26%
GFAP promoter; single 40 mg/kg IP, brain
  time at which promoter activity returned to normal: ≤ 24 h
  time of peak reduction in promoter activity after injection: 4 to 6 h
GFAP promoter; single injection of 40 mg/kg IP, brains collected at 4 hours after injection
  reduction in promoter activity: 38%
GFAP promoter; single injection, doses of 5-20 mg/kg IP
  effect on promoter activity: without effect
